{"source": "patent US20080031968A1", "about": "“Methods for increasing cellular energy expenditure” (priority 2005, published 2008)", "key": {"HSMM [1]": {"tested_on": "HSMM", "experiment": "cAMP levels in human skeletal muscle myoblasts", "format": "cell-based", "details": "1 mM IBMX, 30 minutes", "quoted_text": "HSMM were obtained from Cambrex (Walkersville, Md.) and were cultured according to the suppliers instructions. […] For the cAMP measurements, cells were preincubated 12 h in Opti-MEM (Life Technologies, Cergy Pontoise, France), supplemented with 1 mM IBMX. Then medium was changed and cells were incubated for another 1 h in Opti-MEM with 1 mM IBMX, after which the medium was replaced for Opti-MEM with 1 mM IBMX and the indicated compounds. After 30 minutes the cells were lysed for cAMP analysis."}, "KK-Ay mice [2]": {"tested_on": "KK-Ay mice", "experiment": "In vivo VLDL TG production (Tyloxapol) in KK-Ay mice", "set-up": "species or system mouse", "details": "1-week administration of GW4064"}, "SHP+/+ and SHP-/- mice": {"tested_on": "SHP+/+ and SHP-/- mice", "experiment": "FXR agonists in SHP+/+ and SHP-/- mice", "format": "in vivo, mouse", "details": "for hepatic expression of SREBP-1c, ME, CYP7A1 and ANGPTL3: 1-day treatment", "protocol": "(§1) Male C57BL/6J, KK-Ay, and ob/ob (C57BL/6J background) mice, 6-10 weeks of age, were obtained from Elevage Janvier (Le Genest St. Isle, France), CLEA Japan Inc. (Tokyo, Japan), and The Jackson Laboratory (Bar Harbor, Me., USA), respectively. All mice were maintained in a temperature-controlled (23° C.) facility with a 12-hour light/dark cycle and were given free access to food and water. The study protocols were approved by the institutional review boards. The body weight and food intake were measured every second day. The control and high-fat diet was obtained from UAR (Villemoisson sur Orge, France). […] The mice were fasted 4 hours before harvesting blood for subsequent lipid measurements, and tissues for RNA isolation, lipid measurements, and histology."}, "rats": {"tested_on": "rats", "details": "rats treated for 7 days; cited from earlier work"}, "BAT of C57BL/6J mice": {"tested_on": "BAT of C57BL/6J mice", "experiment": "BAT gene expression by microarray and Q-RT-PCR", "format": "in vivo, mouse", "details": "GW4064 treatment", "quoted_text": "For microarray analysis, RNA was isolated from BAT using the RNeasy mini kit (QIAGEN, Courtaboeuf, France). Equal amounts of RNA from mice in each group were pooled (n=3 or 4 mice) and used for cDNA synthesis. After second-strand cDNA synthesis (Life Technologies, Cergy Pontoise, France), in vitro transcription was performed with biotinylated UTP and CTP (Enzo Diagnostics, Farmingdale, N.Y.). Fragmented cRNA samples were hybridized to the Affymetrix MOE430A microarray. The raw data was analyzed using the Microarray Suite Software version 5.0 (MAS5.0, Affymetrix, Santa Clara, Calif.)."}, "C57BL/6J mice": {"tested_on": "C57BL/6J mice", "experiment": "Diet-induced obesity in C57BL/6J mice", "format": "in vivo, mouse", "protocol": "Male C57BL/6J and KK-Ay mice, 6-7 weeks of age, were obtained from Charles River Laboratories France (l'Arbresle, France) and CLEA Japan Inc. (Tokyo, Japan), respectively. […] All mice were maintained in a temperature-controlled (23° C.) facility with a 12 h light/dark cycle and were given free access to food and water. The control and high-fat diet was obtained from UAR (Villemoison surOrge, France). […] GW4064 was suspended in peanut oil and mixed with the high fat diet at a concentration of 180 mg per kg of food. […] The mice were fasted 4 h before harvesting blood for subsequent blood measurements, and tissues for RNA isolation, lipid measurements and histology. Oxygen consumption was measured using the Oxymax apparatus (Columbus Instruments, Columbus, Ohio).\n(§2) An OGTT was performed in animals that were fasted overnight. Glucose was administered by gavage at a dose of 2 g/kg. An IPITT was done in 4 h fasted animals. Insulin was injected at a dose of 0.75 U/kg. Glucose quantification was done with the Maxi Kit Glucometer 4 (Bayer Diagnostic, Puteaux, France) or Glucose RTU (bioMérieux Inc., Marcy l'Etoile, France). Plasma insulin concentrations were measured using ELISA (Cristal Chem Inc., Downers Grove, Ill.). Nonesterified fatty acids, triglycerides, ketone bodies, BA and total cholesterol were determined by enzymatic assays (Roche, Mannheim, Germany). cAMP was measured using the cAMP-Screen system (Applied Biosystems, Bedford, Mass.).\nPieces of mouse tissues were fixed in Bouin's solution, dehydrated in ethanol, embedded in paraffin, and cut at a thickness of 5 μm. Sections were deparaffinized, rehydrated, and stained with haematoxylin and eosin. Transmission electron microscopy was then performed."}, "KK-Ay mice [3]": {"tested_on": "KK-Ay mice", "experiment": "CA or GW4064 treatment of KK-Ay mice, serum lipids", "format": "in vivo, mouse", "details": "chow-fed KK-Ay mice, 1 week, intraperitoneal 10 mg/kg daily", "protocol": "as §1\nFor measurement of liver TGs and cholesterol content, a liver was homogenized in chloroform/methanol (2:1 v/v) using a Polytron tissue grinder (Kinematica AG, Luzern, Switzerland). Lipid extracts were prepared by the classical Folch method. Extracts were dried under N2 flow and resuspended in isopropanol."}, "ob/ob mice": {"tested_on": "ob/ob mice", "experiment": "GW4064 treatment of ob/ob mice, serum TG", "format": "in vivo, mouse", "details": "chow-fed ob/ob mice, 1 week, intraperitoneal 10 mg/kg daily", "protocol": "Male C57BL/6J, KK-Ay, and ob/ob (C57BL/6J background) mice, 6-10 weeks of age, were obtained from Elevage Janvier (Le Genest St. Isle, France), CLEA Japan Inc. (Tokyo, Japan), and The Jackson Laboratory (Bar Harbor, Me., USA), respectively. All mice were maintained in a temperature-controlled (23° C.) facility with a 12-hour light/dark cycle and were given free access to food and water. The study protocols were approved by the institutional review boards. The body weight and food intake were measured every second day. The control and high-fat diet was obtained from UAR (Villemoisson sur Orge, France). The control diet (EQ12310) contained 16.8% protein, 73.5% carbohydrate, and 4.8% fat, whereas the high-fat diet (EQ/ID12309) contained 23.0% protein, 35.5% carbohydrate, and 35.9% fat. For treatment with bile acids, mice were fed diets with 0.5% (w/w) CA. The mice were fasted 4 hours before harvesting blood for subsequent lipid measurements, and tissues for RNA isolation, lipid measurements, and histology. Male SHP−/−mice and littermate SHP+/+ controls (C57/BL6-A129/SvJ mixed strain) of 8 weeks were fed the CA diet as just described or gavaged with GW4064 dissolved in corn oil at 30 mg/kg. […]\nSerum total cholesterol, TGs, and lipoprotein cholesterol and TG profiles were measured as described (Rocchi, et al., Mol Cell. 8:737-747 (2001); Picard, et al., Cell 111:931-941 (2002)). […]"}, "BAT cells": {"tested_on": "BAT cells", "experiment": "Isolated mouse BAT cells, D2 mRNA, D2 activity and cAMP", "format": "cell-based", "details": "BAT cells", "protocol": "as §2"}, "HSMM [4]": {"tested_on": "HSMM", "experiment": "D2 activity in human skeletal muscle myoblasts", "format": "cell-based", "details": "16 h incubation", "protocol": "HSMM were obtained from Cambrex (Walkersville, Md.) and were cultured according to the suppliers instructions. D2 activity measurements were performed after a 16 h incubation with the indicated compounds. For the cAMP measurements, cells were preincubated 12 h in Opti-MEM (Life Technologies, Cergy Pontoise, France), supplemented with 1 mM IBMX. Then medium was changed and cells were incubated for another 1 h in Opti-MEM with 1 mM IBMX, after which the medium was replaced for Opti-MEM with 1 mM IBMX and the indicated compounds. After 30 minutes the cells were lysed for cAMP analysis."}}}
{"smiles": "CC(C)c1onc(-c2c(Cl)cccc2Cl)c1COc1ccc(/C=C/c2cccc(C(=O)O)c2)c(Cl)c1", "note": "[GW4064]", "values": [{"measurement": "cAMP levels", "setting": "HSMM [1]", "value": "did not increase"}, {"measurement": "VLDL secretion", "setting": "KK-Ay mice [2]", "value": "significantly lowered"}, {"measurement": "serum TGs", "setting": "SHP+/+ and SHP-/- mice; SHP+/+ mice, 0, 3 and 7 days", "value": "significantly lowered"}, {"measurement": "hepatic expression of SREBP-1c, ME, CYP7A1 and ANGPTL3", "setting": "SHP+/+ and SHP-/- mice; SHP+/+ mice", "value": "significantly reduced"}, {"measurement": "decrease in serum TGs", "setting": "SHP+/+ and SHP-/- mice; SHP-/- mice", "value": "completely abolished"}, {"measurement": "hepatic expression of SREBP-1c, ME, CYP7A1 and ANGPTL3", "setting": "SHP+/+ and SHP-/- mice; SHP-/- mice", "value": "no decrease"}, {"measurement": "plasma TG", "setting": "rats", "value": "decreased"}, {"measurement": "thermogenic gene response", "setting": "BAT of C57BL/6J mice", "value": "did not result in an induction"}, {"measurement": "effect against diet-induced obesity", "setting": "C57BL/6J mice; high fat diet supplemented with GW4064, 15 mg/kg daily", "value": "no protective effect"}, {"measurement": "body weight gain", "setting": "C57BL/6J mice; mice on a high fat diet with GW4064", "value": "significantly increased"}, {"measurement": "serum TG levels", "setting": "KK-Ay mice [3]", "value": "potently lowered"}, {"measurement": "serum TG levels", "setting": "ob/ob mice", "value": "potently lowered"}, {"measurement": "cAMP levels", "setting": "BAT cells", "value": "did not increase"}, {"measurement": "D2 activity", "setting": "HSMM [4]", "value": "did not induce"}]}
